Assay results as given in article PMC5080911 (Journal of medicinal chemistry, 2016).
Like-named read-outs stand apart in the source and are kept apart here.

Experiments:
tubulin = test: Tubulin polymerization assay; settings: for effect on tubulin polymerization / time to reach maximum/plateau of tubulin polymerization: 3 µM; for effect on tubulin polymerization: not irradiated; for time to reach maximum/plateau of tubulin polymerization: 37 °C, monitored 1 h; for tubulin polymerization effect of irradiated sample: sample irradiated with far-red light
[1] = type: physicochemical; settings: 10 µM in DMEM with 5% FCS, 690 nm
SKOV-3 cells = test: Stability of prodrugs with the SKOV-3 cells in the dark; type: in vitro ADME; settings: 500 nM, 3 day incubation with SKOV-3 cells
[2] = Stability of prodrugs in the complete medium under dark conditions; type: physicochemical; settings: 37 °C, 10 µM, 96 h
[3] = Solubility in aqueous medium; type: physicochemical; settings: qualitative
[4] = 5.6 mW/cm^2, illumination 30 min

| Structure (SMILES) | effect on tubulin polymerization (tubulin) | PTX released from the prodrug ([1]; 5.6 mW/cm^2, illumination 10 min) | PTX released from the prodrug [1, 4] | reduction of recovered prodrug (cells + culture medium) (SKOV-3 cells) [%] | decrease (loss) of prodrug in complete medium [2] | time to reach maximum/plateau of tubulin polymerization (tubulin) | tubulin polymerization effect of irradiated sample (tubulin) | solubility in aqueous medium [3] |
| --- | --- | --- | --- | --- | --- | --- | --- | --- |
| COc1ccc(/C=C\c2cc(OC)c(OC)c(OC)c2)cc1O [CA4, Combretastatin A-4, reference compound] | almost completely prevented the polymerization | – | – | – | – | – | – | – |
| CC(=O)O[C@H]1C(=O)[C@@]2(C)[C@H]([C@H](OC(=O)c3ccccc3)[C@]3(O)C[C@H](OC(=O)[C@H](OC(=O)/C=C/N4CCN(CCO[Si]5(OCCN6CCN(/C=C/C(=O)O[C@@H](C(=O)O[C@H]7C[C@@]8(O)[C@@H](OC(=O)c9ccccc9)[C@@H]9[C@]%10(OC(C)=O)CO[C@@H]%10C[C@H](O)[C@@]9(C)C(=O)[C@H](OC(C)=O)C(=C7C)C8(C)C)[C@@H](NC(=O)c7ccccc7)c7ccccc7)CC6)n6c7c8ccccc8c6/N=C6N=C(/N=c8/c9ccccc9/c(n85)=N/C5=NC(=N\7)/c7ccccc75)c5ccccc5\6)CC4)[C@@H](NC(=O)c4ccccc4)c4ccccc4)C(C)=C1C3(C)C)[C@]1(OC(C)=O)CO[C@@H]1C[C@@H]2O [Compound 4] | – | about 83% | ~93% | 4.9 | less than 7% | ~ 40 min | significantly increased | – |
| CC(=O)O[C@H]1C(=O)[C@@]2(C)[C@H](O)C[C@@H]3OC[C@]3(OC(C)=O)[C@@H]2[C@@H](OC(=O)c2ccccc2)[C@]2(O)C[C@@H](OC(=O)[C@@H](OC(=O)CCC(=O)N3CCN(CCO[Si]4(OCCN5CCN(C(=O)CCC(=O)O[C@@H](C(=O)O[C@@H]6C[C@@]7(O)[C@H](OC(=O)c8ccccc8)[C@H]8[C@@]9(OC(C)=O)CO[C@H]9C[C@@H](O)[C@]8(C)C(=O)[C@H](OC(C)=O)C(=C6C)C7(C)C)[C@H](NC(=O)c6ccccc6)c6ccccc6)CC5)n5c6c7ccccc7c5/N=C5N=C(/N=c7/c8ccccc8/c(n74)=N/C4=NC(=N\6)/c6ccccc64)c4ccccc4\5)CC3)[C@H](NC(=O)c3ccccc3)c3ccccc3)C(C)=C1C2(C)C (stereo partly shown) [Compound 5] | – | – | could not detect PTX | 3.1 | – | ~ 40 min | not much change | lower solubility in aqueous medium than 4 |
| CC(=O)O[C@H]1C(=O)[C@@]2(C)[C@H]([C@H](OC(=O)c3ccccc3)[C@]3(O)C[C@H](OC(=O)[C@H](O)[C@@H](NC(=O)c4ccccc4)c4ccccc4)C(C)=C1C3(C)C)[C@]1(OC(C)=O)CO[C@@H]1C[C@@H]2O [PTX, Paclitaxel, reference compound] | the tubulin polymerization was rapid | – | – | – | – | – | – | – |
